Reference: patent EP0941988A2, “Benzamidoxime derivatives, intermediates and process for their preparation and their use as fungicides” (BASF AKTIENGESELLSCHAFT, priority 1998, dated 1999)

Columns and labels:
[1] = tested on: Weizenmehltau (Erysiphe graminis forma specialis tritici); assay: Efficacy against wheat powdery mildew, protective spray on wheat seedlings cv. "Kanzler" (Anwendungsbeispiel 1); type: in vivo; details: inoculated 24 h after spraying, rating after 7 days, untreated 80 %
Text: Anwendungsbeispiel 1 - Wirksamkeit gegen Weizenmehltau
Blätter von in Töpfen gewachsenen Weizenkeimlingen der Sorte ? Kanzler" wurden mit wäßriger Wirkstoffaufbereitung, die aus einer Stammlösung bestehend aus 10 % Wirkstoff, 63 % Cyclohexanon und 27 % Emulgiermittel angesetzt wurde, bis zur Tropfnässe besprüht und 24 Stunden nach dem Antrocknen des Spritzbelages mit Sporen des Weizenmehltaus (Erysiphe graminis forma specialis tritici) bestäubt. Die Versuchspflanzen wurden anschließend im Gewächshaus bei Temperaturen zwischen 20 und 24°C und 60 bis 90 % relativer Luftfeuchtigkeit aufgestellt. Nach 7 Tagen wurde das Ausmaß der Mehltauentwicklung visuell in % Befall der gesamten Blattfläche ermittelt.

[2] = tested on: Weizenmehltau (Erysiphe graminis f.sp.tritici); assay: Efficacy against wheat powdery mildew, protective spray on wheat seedlings cv. "Frühgold" (Beispiel 2); type: in vivo; details: inoculated 24 h after spray coating dried, visual rating after 7 days, concentration not given, untreated plants 80 % infested
Method: Beispiel 2: Wirksamkeit gegen Weizenmehltau
Blätter von in Töpfen gewachsenen Weizenkeimlingen der Sorte "Frühgold" wurden mit wäßriger Wirkstoffaufbereitung, die aus einer Stammlösung bestehend aus 10 % Wirkstoff, 63% Cyclohexanon und 27 % Emulgiermittel angesetzt wurde, bis zur Tropfnässe besprüht und 24 h nach dem Antrocknen des Spritzbelages mit Sporen des Weizenmehltaus (Erysiphe graminis f.sp.tritici) bestäubt. Die Versuchspflanzen wurden anschließend im Gewächshaus bei Temperaturen zwischen 20 und 22 °C und 75 bis 80 % relativer Luftfeuchtigkeit aufgestellt. Nach 7 Tagen wurde das Ausmaß der Mehltauentwicklung visuell in % der gesamten Blattfläche ermittelt.

SMILES: O=C(Cc1ccccc1)NC(=NOCC1CC1)c1c(Cl)ccc(F)c1Cl [II.1, N-Phenylacetyl-2,6-dichlor-5-fluorbenzamid-[O-cyclopropylmethyl]oxim]
- %-Befall der Blätter nach Applikation von ... ppm-haltiger wäßriger Wirkstoffaufbereitung ([1]; 16 ppm): 0%
- %-Befall der Blätter nach Applikation von ... ppm-haltiger wäßriger Wirkstoffaufbereitung ([1]; 63 ppm): 0%
- Ausmaß der Mehltauentwicklung (Befall) [2]: keinen Befall
